Positions of bridges follow the written chain, without caps; N, C: chain ends. Non-standard residues stand in square brackets, D forms with d. Residues, ends and D or L forms follow the SMILES beside them. ξ: configuration not given here. Phe(4-COOH) = N[C@@H](Cc1ccc(C(=O)O)cc1)C(=O)O; Bip = N[C@@H](Cc1ccc(-c2ccccc2)cc1)C(=O)O; NMeY = CN[C@@H](Cc1ccc(O)cc1)C(=O)O; NMeF = CN[C@@H](Cc1ccccc1)C(=O)O; 4Pal = N[C@@H](Cc1ccncc1)C(=O)O; Cha = N[C@@H](CC1CCCCC1)C(=O)O; Thr(3ξ) = CC(O)[C@H](N)C(=O)O; dOrn = NCCC[C@@H](N)C(=O)O; NMeA = CN[C@@H](C)C(=O)O; Orn = NCCC[C@H](N)C(=O)O; dNMeA = CN[C@H](C)C(=O)O; Dab = NCC[C@H](N)C(=O)O; Dap = NC[C@H](N)C(=O)O; Sar = CNCC(=O)O
What follows are molecules tested against T1, human PD-1 (Jurkat-PD-1 cells) / PE-labeled human PD-L1-Ig (Homo sapiens, UniProt Q15116) (assay: Jurkat-PD-1 Cell Binding High-Content Screening Assay (CBA); Jurkat hPD1-PDL1 assay). Details: Jurkat cell line over-expressing human PD-1; PE-labeled PD-L1-Ig 20 nM final; compound incubated 2 hours at 37° C.; read-out: Jurkat HPD1-PDL1 IC50.
T1 construct: expressed in transfected cells; host or cells: Jurkat cell line over-expressing human PD-1
T1 sequence (Q15116 25-288): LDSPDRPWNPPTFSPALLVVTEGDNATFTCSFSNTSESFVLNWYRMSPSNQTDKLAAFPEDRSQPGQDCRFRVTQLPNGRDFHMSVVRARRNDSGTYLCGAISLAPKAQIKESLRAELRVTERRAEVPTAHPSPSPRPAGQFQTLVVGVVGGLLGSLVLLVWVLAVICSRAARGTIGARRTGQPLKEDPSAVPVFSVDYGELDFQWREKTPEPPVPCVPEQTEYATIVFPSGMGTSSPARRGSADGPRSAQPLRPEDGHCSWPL
Procedure, shortened: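 Jurkat-hPD-1 cells; cpd 2 h, 37° C; then PE-PD-L1-Ig 20 nM final in DMEM/10% FCS; high-content imaging read-out.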
CC(C)C[C@@H]1NC(=O)[C@H](CCCNC(=N)N)NC(=O)[C@H](Cc2ccc(O)cc2)N(C)C(=O)[C@H](C)N(C)C(=O)[C@H](CCCNC(=N)N)NC(=O)[C@H](Cc2ccc(-c3ccccc3)cc2)NC(=O)[C@H](C(C)C)NC(=O)[C@H](Cc2c[nH]c3ccccc23)NC(=O)[C@H](CC(=O)O)NC(=O)[C@H](Cc2ccc(O)cc2)NC(=O)[C@H](Cc2ccccc2)NC(=O)CSC[C@@H](C(=O)NCC(N)=O)NC(=O)[C@H](CO)NC(=O)[C@H](C(C)C)NC1=O [Example 1280] ({CH2CO}-FYDWV[Bip]R[NMeA][NMeY]RLVSCG-NH2; thioether N-14) gave an IC50 of 0.5 µM.
CC(C)C[C@@H]1NC(=O)[C@H](Cc2c[nH]c3ccccc23)NC(=O)[C@H](CC(=O)O)NC(=O)[C@H](Cc2ccc(O)cc2)NC(=O)[C@H](Cc2ccccc2)NC(=O)CSC[C@@H](C(=O)N[C@@H](C)C(N)=O)NC(=O)[C@H]([C@@H](C)O)NC(=O)[C@H](CCCNC(=N)N)NC(=O)[C@H](CC(C)C)NC(=O)[C@H](CC(N)=O)NC(=O)[C@H]2CCCN2C(=O)[C@H](C)N(C)C(=O)[C@H](C(C)C)NC(=O)[C@H](Cc2ccc(-c3ccccc3)cc2)NC1=O [Example 1171] ({CH2CO}-FYDWL[Bip]V[NMeA][dP]NLRTCA-NH2; thioether N-14) gave an IC50 of 0.94 µM.
CC(C)C[C@@H]1NC(=O)[C@H](Cc2c[nH]c3ccccc23)NC(=O)[C@H](CC(=O)O)NC(=O)[C@H](Cc2cnc[nH]2)NC(=O)[C@H](Cc2ccccc2)NC(=O)CSC[C@@H](C(=O)NCC(N)=O)NC(=O)[C@H](CO)NC(=O)[C@H](C(C)C)NC(=O)[C@H](CC(C)C)NC(=O)[C@H](CC(N)=O)NC(=O)CN(C)C(=O)[C@H](C)N(C)C(=O)[C@H](C(C)C)NC(=O)[C@H](Cc2ccc(-c3ccccc3)cc2)NC1=O [Example 1153] ({CH2CO}-FHDWL[Bip]V[NMeA][Sar]NLVSCG-NH2; thioether N-14) gave an IC50 of 0.76 µM.
CC(C)C[C@@H]1NC(=O)[C@H](Cc2c[nH]c3ccccc23)NC(=O)[C@H](CC(=O)O)NC(=O)[C@H](Cc2ccc(O)cc2)NC(=O)[C@H](Cc2ccccc2)NC(=O)CSC[C@@H](C(=O)N[C@@H](CCN)C(N)=O)NC(=O)[C@H](CO)NC(=O)[C@H](C(C)C)NC(=O)[C@H](CC(C)C)NC(=O)[C@H](CC(N)=O)NC(=O)CN(C)C(=O)[C@H](C)N(C)C(=O)[C@H](C(C)C)NC(=O)[C@H](Cc2ccc(-c3ccccc3)cc2)NC1=O [Example 1103] ({CH2CO}-FYDWL[Bip]V[NMeA][Sar]NLVSC[Dab]-NH2; thioether N-14) showed an IC50 of 0.31 µM.
For CC(C)[C@@H]1NC(=O)[C@H](Cc2c[nH]c3ccccc23)NC(=O)[C@H](CC(=O)O)NC(=O)[C@H](Cc2ccncc2)NC(=O)[C@H](CN)NC(=O)CSC[C@@H](C(=O)NCC(N)=O)NC(=O)[C@H](C(C)O)NC(=O)[C@H](C(C)C)NC(=O)[C@H](CC2CCCCC2)NC(=O)[C@H](CCN)NC(=O)[C@@H](C)N(C)C(=O)[C@H](CCCN)NC(=O)[C@H](CN)NC(=O)[C@H](Cc2ccc(-c3ccccc3)cc2)NC1=O (stereo partly drawn) [Example 1434] ({CH2CO}-[Dap][4Pal]DWV[Bip][Dap][Orn][dNMeA][Dab][Cha]V[Thr(3ξ)]CG-NH2; thioether N-14), the IC50 was 0.1 µM.
CC(C)C[C@@H]1NC(=O)[C@H](Cc2c[nH]c3ccccc23)NC(=O)[C@H](CC(=O)O)NC(=O)[C@H](Cc2ccc(O)cc2)NC(=O)[C@H](Cc2ccccc2)NC(=O)CSC[C@@H](C(=O)N[C@H](C)C(N)=O)NC(=O)[C@H](CO)NC(=O)[C@H](C(C)C)NC(=O)[C@H](CC(C)C)NC(=O)[C@H](CC(N)=O)NC(=O)CN(C)C(=O)[C@H](C)N(C)C(=O)[C@H](C(C)C)NC(=O)[C@H](Cc2ccc(-c3ccccc3)cc2)NC1=O [Example 1151] ({CH2CO}-FYDWL[Bip]V[NMeA][Sar]NLVSC[dA]-NH2; thioether N-14) gave an IC50 of 0.7 µM.
CC(C)C[C@@H]1NC(=O)[C@H](Cc2c[nH]c3ccccc23)NC(=O)[C@H](CC(=O)O)NC(=O)[C@H](Cc2ccc(O)cc2)NC(=O)[C@H](Cc2ccccc2)NC(=O)CSC[C@@H](C(=O)N[C@@H](C)C(N)=O)NC(=O)[C@H](CO)NC(=O)[C@H](C(C)C)NC(=O)[C@H](CC(C)C)NC(=O)[C@H](CC(N)=O)NC(=O)[C@H]2CCCN2C(=O)[C@H]2CCCN2C(=O)[C@H](C(C)C)NC(=O)[C@H](Cc2ccc(-c3ccccc3)cc2)NC1=O [Example 1007] ({CH2CO}-FYDWL[Bip]V[dP][dP]NLVSCA-NH2; thioether N-14) gave an IC50 of 0.15 µM.
Work on CC(C)C[C@@H]1NC(=O)[C@H](CCCNC(=N)N)NC(=O)[C@H](Cc2ccccc2)N(C)C(=O)[C@H](C)N(C)C(=O)[C@H](CCCN)NC(=O)[C@H](Cc2ccc(-c3ccccc3)cc2)NC(=O)[C@H](C(C)C)NC(=O)[C@H](Cc2c[nH]c3ccccc23)NC(=O)[C@H](CC(=O)O)NC(=O)[C@H](Cc2ccc(O)cc2)NC(=O)[C@H](CC(N)=O)NC(=O)CSC[C@@H](C(=O)N[C@@H](C)C(N)=O)NC(=O)[C@H]([C@@H](C)O)NC(=O)[C@H](C(C)C)NC1=O [Example 1347] ({CH2CO}-NYDWV[Bip][Orn][NMeA][NMeF]RLVTCA-NH2; thioether N-14) yielded an IC50 of 0.16 µM.
Molecule CC(C)C[C@@H]1NC(=O)[C@H](CCCNC(=N)N)NC(=O)[C@H](Cc2ccccc2)N(C)C(=O)[C@H](C)N(C)C(=O)[C@H](CCCNC(=N)N)NC(=O)[C@H](Cc2ccc(-c3ccccc3)cc2)NC(=O)[C@H](C(C)C)NC(=O)[C@H](Cc2c[nH]c3ccccc23)NC(=O)[C@H](CC(=O)O)NC(=O)[C@H](Cc2ccncc2)NC(=O)[C@H](CC(N)=O)NC(=O)CSC[C@@H](C(=O)N[C@@H](C)C(N)=O)NC(=O)[C@H]([C@@H](C)O)NC(=O)[C@H](C(C)C)NC1=O [Example 1349] ({CH2CO}-N[4Pal]DWV[Bip]R[NMeA][NMeF]RLVTCA-NH2; thioether N-14) has an IC50 of 0.33 µM.
CC(C)C[C@@H]1NC(=O)[C@H](Cc2c[nH]c3ccccc23)NC(=O)[C@H](CC(=O)O)NC(=O)[C@H](Cc2ccc(O)cc2)NC(=O)[C@H](Cc2ccccc2)NC(=O)CSC[C@@H](C(=O)N[C@@H](C)C(N)=O)NC(=O)[C@H](CO)NC(=O)[C@H](C(C)C)NC(=O)[C@H](CC(C)C)NC(=O)[C@H](CC(N)=O)NC(=O)CN(C)C(=O)[C@@H](CCCN)NC(=O)[C@H](C(C)C)NC(=O)[C@H](Cc2ccc(-c3ccccc3)cc2)NC1=O [Example 1198] ({CH2CO}-FYDWL[Bip]V[dOrn][Sar]NLVSCA-NH2; thioether N-14) showed an IC50 of 0.76 µM.
With CC(C)C[C@@H]1NC(=O)[C@H](CCN)NC(=O)[C@H](Cc2ccccc2)N(C)C(=O)[C@H](C)N(C)C(=O)[C@H](CCCNC(=N)N)NC(=O)[C@H](Cc2ccc(-c3ccccc3)cc2)NC(=O)[C@H](C(C)C)NC(=O)[C@H](Cc2c[nH]c3ccccc23)NC(=O)[C@H](CC(=O)O)NC(=O)[C@H](Cc2ccc(O)cc2)NC(=O)[C@H](CCC(N)=O)NC(=O)CSC[C@@H](C(=O)N[C@@H](C)C(N)=O)NC(=O)[C@H]([C@@H](C)O)NC(=O)[C@H](C(C)C)NC1=O [Example 1326] ({CH2CO}-QYDWV[Bip]R[NMeA][NMeF][Dab]LVTCA-NH2; thioether N-14) the IC50 was 0.15 µM.
CC(C)[C@@H]1NC(=O)[C@H](Cc2c[nH]c3ccccc23)NC(=O)[C@H](CC(=O)O)NC(=O)[C@H](Cc2ccc(C(=O)O)cc2)NC(=O)[C@H](Cc2ccncc2)NC(=O)CSC[C@@H](C(=O)N[C@@H](C)C(N)=O)NC(=O)[C@H]([C@@H](C)O)NC(=O)[C@H](C(C)C)NC(=O)[C@H](CC2CCCCC2)NC(=O)[C@H](CCN)NC(=O)[C@H](Cc2ccccc2)N(C)C(=O)[C@H](CCCN)NC(=O)[C@H](CCC(=O)O)NC(=O)[C@H](Cc2ccc(-c3ccccc3)cc2)NC1=O [Example 1438] ({CH2CO}-[4Pal][Phe(4-COOH)]DWV[Bip]E[Orn][NMeF][Dab][Cha]VTCA-NH2; thioether N-14) was tested, and the IC50 was 0.07 µM.

Source: patent publication US20240360178A1, “MACROCYCLIC IMMUNOMODULATORS” (Bristol-Myers Squibb Company, priority 2021, published 2024)
